Measurements from patent publication US7300770B2, “Detection of microbe contamination on elastomeric articles” (Kimberly-Clark Worldwide, Inc., priority 2004, dated 2007).
Where “and” joins values, the source holds several entries; their conditions need not be identical. Equal values may be shown once.

Key:
[1] = Reichardt's dye and TMB coated towel exposed to dilute bleach; conditions: towel coated with mixture of Reichardt's dye and TMB
[2] = tested on: Herpes Simplex Virus 1 (HSV-1); experiment: Virus detection on Reichardt's dye-coated stickers; conditions: undiluted virus, 50 microliters, 3 minutes
[3] = tested on: vaginal fluid samples; experiment: Dye-coated stickers tested with vaginal fluid samples
Method: A sticker of each concentration was tested with normal, BV positive/pH positive, and BV negative/pH positive vaginal fluid samples. […] The three states of color change were easily distinguishable.

[4] = tested on: Rhinovirus; experiment: Virus detection on Reichardt's dye-coated stickers; conditions: virus diluted serially in saline; 50 microliters, 3 minutes
[5] = Color change of dye with bacterial cell-wall compounds on paper towel; set-up: species or system E. coli; Streptococcus faecalis; conditions: detoxified LPS, lipoteichoic acid
[6] = tested on: G. vaginalis; experiment: Titration of microorganisms with Reichardt's dye on cellulosic towel; conditions: Gram(-), 10^7 CFU/mL, 100 microliters
[7] = tested on: Polio virus
[8] = tested on: aged chicken juice; experiment: Comparative dyes dropped onto aged chicken juice on paper towel; conditions: aged chicken juice on SCOTT paper towel
[9] = tested on: L. acidophilus; experiment: Titration of microorganisms with Reichardt's dye on cellulosic towel; conditions: Lactobacillus, Gram(+), 10^7 CFU/mL, 100 microliters; 160 mg/10 mL acetonitrile
[10] = tested on: S. aureus; experiment: Dye coatings from different solvents on towels exposed to S. aureus
Method: The behavior of Reichardt's dye coatings made using various different solvents was evaluated. Solutions of Reichardt's dye in acetonitrile, isopropanol, and xylenes were prepared and the solutions were used to coat SCOTT® kitchen rolls towels and allowed to air-dry. […] Though the color of the dye was less intense than that seen with acetonitrile, the color change due to microbial contamination was still readily observed.

[11] = tested on: S. aureus; experiment: Visual quantification of S. aureus on dye-treated paper, with blind study
Method: The color differences at lower concentrations were less distinct, particularly for the brush-coated sheet. A blind study was then conducted. […] Concentrations of these three drops were unknown to two of the experiment participants. After approximately 2 minutes, the drops were removed and blotted. Using the control regions, the concentrations of each sample were each visually estimated by these two persons. Both persons correctly estimated the concentration of the first sample to be 10^6 CFU/mL. […] The persons, however, incorrectly estimated the third sample to be 10^3 CFU/mL. […] The present inventors believe, however, that the concentration of the chromogen and uniformity of the coating may be readily selected to achieve accurate results at such low concentrations.

[12] = tested on: E. coli; experiment: Dye-coated towel rubbed with dry E. coli colony; conditions: dry colony rubbed onto pre-moistened coated towel
Method: A test using the Reichardt's dye coated paper towel with a “dry” bacteria sample was carried out. Specifically, a dry sample of a colony of E. coli bacteria was lifted off an agar petri dish that contained a series of growing cultures. This dry sample was then rubbed onto a pre-moistened dye coated SCOTT® paper towel. The area where the colony was placed and rubbed turned colorless within 1 to 5 seconds.

[13] = tested on: S. aureus; experiment: Titration of microorganisms with Reichardt's dye on cellulosic towel; set-up: species or system Staphylococcus aureus; conditions: Gram(+), 10^7 CFU/mL, 100 microliters
[14] = tested on: P. aeruginosa; experiment: Delta E of dye-coated paper and label substrates versus bacteria concentration
Excerpt: (§1) More specifically, indicator strips coated with Reichardt's dye were exposed with decreasing amounts of the bacteria aliquots. A hand-held spectrophotometer was used to after application of each aliquot to determine “Delta E” value (calculated using L*, A*, and B* values) for each CFU/mL concentration. The results are set forth below in Table 4 (for paper) and Table 5 (for label). From the above, standard detection curves were generated as shown in FIGS. 5-7 for S. aureus, P. aeruginosa, and E. coli, respectively. As shown, each type of bacteria changed the color of the dye-treated substrate in a slightly different way, creating a unique standard curve. Thereafter, drops of unknown bacteria concentrations were placed on the stickers and a spectrophotometer was used to measure the “Delta E” of the resulting color. The numerical values obtained for each unknown sample set forth below in Tables 6-7. […] Although a few of the results were not completely accurate, the present inventors believe that improving the uniformity of the coating would further enhance detection accuracy.

[15] = tested on: E. coli; experiment: as above; conditions: for Delta E of unknown sample / log CFU/ml (estimated): E. coli
Excerpt: as §1

[16] = tested on: S. aureus; experiment: as above
Excerpt: as §1

[17] = tested on: aged raw chicken juice; experiment: Dye spray on aged raw chicken juice pattern and re-colorization with 1 N NaOH
[18] = paper substrate, P. aeruginosa, log CFU/ml (actual) 3
[19] = label substrate, log CFU/ml (actual) 7
[20] = paper substrate, log CFU/ml (actual) 3
[21] = paper substrate, S. aureus, log CFU/ml (actual) 5

[O-]c1c(-c2ccccc2)cc(-[n+]2c(-c3ccccc3)cc(-c3ccccc3)cc2-c2ccccc2)cc1-c1ccccc1 [Reichardt's dye, 4-(2,4,6-triphenylpyridinium-1-yl)-2,6-diphenylphenolate]
Color response to dilute bleach solution [1]: de-colorizing | De-colorization of sticker [2]: stronger de-colorization of the sticker than that observed for Rhinovirus and Polio virus | Color change of dye-coated sticker ([3]; BV negative/pH positive sample): only faintly changed the color | Color change of dye-coated sticker ([3]; BV positive/pH positive sample): next sharpest color change | Color change of dye-coated sticker ([3]; normal vaginal fluid): sharpest color change | Ten-fold dilution down to which stickers changed color [4]: 10^−6 | Color change of dye with the other cell-wall compounds [5]: eventual color change | Amount of Dye Required for Persistent Color [6]: 90 µL | Dye added until the color persisted ([7]; 100 microliters undiluted virus, 80 mg/10 mL acetonitrile with or without TWEEN 80): approximately 9 drops | Discharge of dye color on virus spot ([7]; surfactant- and non-surfactant-containing solutions): rapidly discharged | Color change on dropping dye onto aged chicken juice [8]: immediately changed color | Amount of Dye Required for Persistent Color [9]: 110 µL | Color change of coating where bacterial suspension was placed ([10]; acetonitrile solution-based coating): rapid color change | Color change of coating where bacterial suspension was placed ([10]; isopropanol and xylenes coatings): No visible color change | S. aureus concentration giving obvious color change ([11]; Neenah Bond paper, 80 mg/10 mL acetonitrile, about 2 minutes): ≥ 10^5 CFU/mL | Visually estimated concentration in blind study ([11]; first sample, actual 10^6 CFU/mL, dip-coated sheet): 10^6 CFU/mL | Visually estimated concentration in blind study ([11]; second sample, actual 10^5 CFU/mL, brush-coated sheet): 10^5 CFU/mL | Visually estimated concentration in blind study ([11]; third sample, actual 10^4 CFU/mL, dip-coated sheet): 10^3 CFU/mL | Time to turn colorless [12]: 1 to 5 s | Amount of Dye Required for Persistent Color [13]: 90 µL | Delta E of unknown sample ([14]; label substrate, P. aeruginosa, log CFU/ml (actual) 6): 4.4954 and 4.1002 | Delta E (P. aeruginosa) ([14]; label substrate, log CFU/ml 3): 3.8787 | Delta E (P. aeruginosa) ([14]; label substrate, log CFU/ml 4): 4.9473 | Delta E (P. aeruginosa) ([14]; label substrate, log CFU/ml 5): 4.6519 | Delta E (P. aeruginosa) ([14]; label substrate, log CFU/ml 6): 4.2419 | Delta E (P. aeruginosa) ([14]; label substrate, log CFU/ml 7): 6.9567 | Delta E of unknown sample [14, 18]: 1.0267 | log CFU/ml (estimated) [14, 18]: 5 | Delta E (P. aeruginosa) ([14]; paper substrate, log CFU/ml 3): 1.7900 | Delta E (P. aeruginosa) ([14]; paper substrate, log CFU/ml 4): 2.2358 | Delta E (P. aeruginosa) ([14]; paper substrate, log CFU/ml 5): 1.7151 | Delta E (P. aeruginosa) ([14]; paper substrate, log CFU/ml 6): 1.3193 | Delta E (P. aeruginosa) ([14]; paper substrate, log CFU/ml 7): 4.9569 | Delta E of unknown sample [15, 19]: 7.1157 | log CFU/ml (estimated) [15, 19]: 7 | Delta E (E. coli) ([15]; label substrate, log CFU/ml 3): 5.13 | Delta E (E. coli) ([15]; label substrate, log CFU/ml 4): 5.201 | Delta E (E. coli) ([15]; label substrate, log CFU/ml 5): 4.644 | Delta E (E. coli) ([15]; label substrate, log CFU/ml 6): 4.867 | Delta E (E. coli) ([15]; label substrate, log CFU/ml 7): 7.779 | Delta E of unknown sample [15, 20]: 1.3605 | log CFU/ml (estimated) [15, 20]: 5 | Delta E (E. coli) ([15]; paper substrate, log CFU/ml 3): 3.8228 | Delta E (E. coli) ([15]; paper substrate, log CFU/ml 4): 3.0123 | Delta E (E. coli) ([15]; paper substrate, log CFU/ml 5): 2.3320 | Delta E (E. coli) ([15]; paper substrate, log CFU/ml 6): 3.2574 | Delta E (E. coli) ([15]; paper substrate, log CFU/ml 7): 4.3483 | Delta E (E. coli) ([15]; paper substrate, log CFU/ml 8): 9.3642 | Delta E of unknown sample ([16]; label substrate, S. aureus, log CFU/ml (actual) 6): 6.869 and 4.228 | Delta E (S. aureus) ([16]; label substrate, log CFU/ml 3): 5.414 | Delta E (S. aureus) ([16]; label substrate, log CFU/ml 4): 4.791 | Delta E (S. aureus) ([16]; label substrate, log CFU/ml 5): 6.92 | Delta E (S. aureus) ([16]; label substrate, log CFU/ml 6): 6.908 | Delta E (S. aureus) ([16]; label substrate, log CFU/ml 7): 18.62 | Delta E of unknown sample [16, 21]: 3.161 | log CFU/ml (estimated) [16, 21]: 5 | Delta E (S. aureus) ([16]; paper substrate, log CFU/ml 3): 1.867 | Delta E (S. aureus) ([16]; paper substrate, log CFU/ml 4): 2.074 | Delta E (S. aureus) ([16]; paper substrate, log CFU/ml 5): 2.447 | Delta E (S. aureus) ([16]; paper substrate, log CFU/ml 6): 3.876 | Delta E (S. aureus) ([16]; paper substrate, log CFU/ml 7): 11.73 | Effect of 1 N NaOH on area that changed color ([17]; drop of 1 N NaOH): re-colorization of that small spot | Color change with aged chicken juice pre-mixed with 1 molar NaOH ([17]; equal proportions, 30 seconds): rapid color change
